The record followed here is patent US20030203864A1, “Treatment of cancer” (priority 2002, published 2003).

Holding throughout (assay type): cell-based, human
Data set [1] concerns HepG2 cells. Description: HepG2 cell proliferation (Coulter counter). The settings on record: 0.75 μM DNAzyme, 5% FBS, 3 days. Here is the method: HepG2 cells were routinely grown in DMEM, pH 7.4, containing 10% fetal calf serum supplemented with antibiotics. The cells were trypsinized, resuspended in growth medium (to 10,000 cells/200 μl) and 200 μl transferred into sterile 96 well titre plates. Two days subsequently, 180 μl of the culture supernatant was removed, the cells were washed with PBS, pH 7.4, and refed with 180 μl of serum free media. After 6 h, the first transfection of DNAzyme (2 μg/200 μl wall, 0.75 μM final) was performed in tubes containing serum free media using FuGENE6 at a ratio of 1:3 (μg:μl). After 15 min incubation at room temperature, 180 μl of the culture supernantant was replaced with 180 μl of the transfection mix, After 24 h, 180 μl of the supernatant was replaced with 180 μl of new transfection mix, but this time in 5% FBS media. After 3 days, the cells were washed in PBS, pH 7.4, and resuspended by trypsinization in 100 μl trypsin-EDTA. The cells were shaken for approximately 5 min to ensure the cells were in suspension. The entire suspension was placed into 10 ml of Isoton II. That all the cells were transferred was ensured by pipetting Isoton II solution from tubes back into wells several times. Using Isoton II only, background cell number was determined. Each sample was counted three times and used to calculate mean counts and standard errors of each mean.

The test system of data set [2] is HMEC-1 cells. Kind of data set: HMEC-1 proliferation assay (Coulter counter). The settings on record: 0.4 μM DNA enzyme. The procedure:
HMEC-1 culture and proliferation assay. SV40-transformed HMEC-1 cells were grown in MCDB 131 medium with EGF (10 ng/ml) and hydrocortisone (1 μg/ml) supplements and 10% FBS. […] The cells were quantitated by Coulter counter, 24 h after the addition of serum.

Data set [3] has as its system EGR-1. Kind of data set: Western blot of EGR-1 in HepG2 cells. (In general: Immunoblotting shows a protein as a band on a membrane.)

Entries after “also recorded” stand apart in the source; their conditions may differ.

EGR-1, sequence (P18146 whole entry): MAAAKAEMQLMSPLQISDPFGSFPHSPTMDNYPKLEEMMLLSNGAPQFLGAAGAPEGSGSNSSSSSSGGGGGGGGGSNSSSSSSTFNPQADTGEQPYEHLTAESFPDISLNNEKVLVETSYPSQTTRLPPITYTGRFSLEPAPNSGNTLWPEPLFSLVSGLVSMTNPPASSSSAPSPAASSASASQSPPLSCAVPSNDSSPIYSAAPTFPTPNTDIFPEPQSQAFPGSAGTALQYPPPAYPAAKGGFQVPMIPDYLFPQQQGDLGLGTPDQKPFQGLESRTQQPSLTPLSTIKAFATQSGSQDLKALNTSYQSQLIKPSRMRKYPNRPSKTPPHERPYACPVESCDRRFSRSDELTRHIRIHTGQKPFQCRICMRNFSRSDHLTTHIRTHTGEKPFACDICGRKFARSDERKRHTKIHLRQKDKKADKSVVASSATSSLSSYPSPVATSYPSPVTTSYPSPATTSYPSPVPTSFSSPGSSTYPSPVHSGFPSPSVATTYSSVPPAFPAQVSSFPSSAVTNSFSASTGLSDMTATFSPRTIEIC

“DzA: DNAzyme targeting human EGR-1 mRNA (arms hybridize to nts 189-207), 5′-caggggacaGGCTAGCTACAACGAcgttgcggg (DNA CAGGGGACAGGCTAGCTACAACGACGTTGCGGG; DNA, backbone and methylation of C not given here)”: the “serum-stimulated HepG2 cell proliferation” value in data set [1] is listed as “almost completely suppressed; also recorded: inhibited”. Also, in data set [2], the “HMEC-1 replication (total cell counts)” value is on record as “inhibited”. Besides, the “EGR-1 expression in HepG2 cells” value in data set [3] is reported as “strongly inhibited”.
